{
  "source": "PubChem BioAssay AID651891",
  "about": "(Broad Institute, 2012)",
  "system": "L. donovani axenic amastigotes, Alamar blue, 72 h",
  "assay": "L. donovani amastigote growth inhibition, dose response, axenic amastigotes, plate reader, cherry pick (AID 651891)",
  "note": "The source made the active and inactive calls.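 The calls were made as follows: active = IC50 below three times the IC50 of the reference antileishmanial control drug; inactive = the rest.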",
  "data": [
    {"smiles": "C[C@@H]1CN([C@@H](C)CO)C(=O)c2cccc(NC(=O)c3ccncc3)c2O[C@H]1CN(C)Cc1ccc(Oc2ccccc2)cc1", "values": [
      {"measurement": "IC50", "result": "21.2 µM (inactive)"}
    ]}
  ]
}
